This passage reports Kd and pKa results from ChEMBL document CHEMBL4017503, “Identification of a New Zinc Binding Chemotype by Fragment Screening” (J Med Chem, 2017).

Bounds are passed on as bounds.

The target in one series is Carbonic anhydrase 2 (Homo sapiens, UniProt P00918). The series is described as follows: Binding affinity to human carbonic anhydrase 2 by surface plasmon resonance spectrometry.
As a reminder, the Kd is the free concentration of one partner at which half of the binding sites on the other are occupied at equilibrium, for simple one-to-one binding. `O=C1NC(=O)C(c2ccccc2)N1` (stereo not given) returned a Kd greater than 2000 µM. The same measure, in the same setting: then `O=C1NC(=O)C(Cc2ccccc2)N1` (stereo not given), with greater than 2000 µM; and `COc1ccc(/C=C2\SC(=O)NC2=O)c(OC)c1`, with greater than 2000 µM. Same read-out and setting: for `O=C1NC(=O)/C(=C/c2ccccc2)N1` the value was greater than 2000 µM. `COc1ccc(/C=C2\NC(=O)NC2=O)c(OC)c1` registered a Kd greater than 2000 µM. On to `COc1ccc(/C=C2\NC(=S)NC2=O)c(OC)c1`, for which the Kd is greater than 2000 µM. On the same count and under the same terms, for `COc1ccc(CC2NC(=O)NC2=O)c(OC)c1` (stereo not given) the value was greater than 2000 µM; for `CC1(C)OC(=O)NC1=O` [DIMETHADIONE], greater than 2000 µM. With `CN1C(=O)OC(C)(C)C1=O` [TRIMETHADIONE], the Kd was greater than 2000 µM.

System in the next series: not listed separately
The series is described as follows: Dissociation constant, pKa of the compound. The series is classed as physicochemical.
As a reminder, the pKa is the pH at which an ionisable group is half protonated. In turn, `O=C1NC(=O)C(c2ccccc2)O1` (stereo not given) [PEMOLINE DIONE] gave a pKa of 5.5.
